Data as given in ChEMBL document CHEMBL1201862, “PubChem BioAssay data set” (2004).
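96-well plates; 48 h exposure; 5 concentrations. Endpoints by linear interpolation between flanking doses. Not reached: highest tested concentration assigned. Abbreviation: GI50, concentration required for 50% inhibition of growth.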 The source made the active and inactive calls. Cut-off read from the data, not from the text of the source: active = GI50 up to about 1.1 µM and inactive = higher.

Key:
Assay in all cases: NCI anticancer screen, dose series, 48 h
[1] = system: 786-0
[2] = system: A498
[3] = system: A549
[4] = system: ACHN
[5] = system: CAKI-1
[6] = system: CCRF-CEM
[7] = system: COLO 205
[8] = system: DU-145
[9] = system: EKVX
[10] = system: HCC 2998
[11] = system: HCT-116
[12] = system: HCT-15
[13] = system: HL-60
[14] = system: HOP-62
[15] = system: HT-29
[16] = system: Hs-578T
[17] = system: IGROV-1
[18] = system: K562
[19] = system: KM12
[20] = system: M14
[21] = system: MCF7
[22] = system: MDA-MB-231
[23] = system: MDA-MB-435
[24] = system: MDA-N
[25] = system: MOLT-4
[26] = system: Malme-3M
[27] = system: NCI-H226
[28] = system: NCI-H23
[29] = system: NCI-H460
[30] = system: NCI-H522
[31] = system: NCI/ADR-RES
[32] = system: OVCAR-3
[33] = system: OVCAR-4
[34] = system: OVCAR-5
[35] = system: OVCAR-8
[36] = system: PC-3
[37] = system: RPMI-8226
[38] = system: RXF 393
[39] = system: SF-268
[40] = system: SF-295
[41] = system: SF-539
[42] = system: SK-MEL-28
[43] = system: SK-MEL-2
[44] = system: SK-MEL-5
[45] = system: SK-OV-3
[46] = system: SN12C
[47] = system: SNB-19
[48] = system: SNB-75
[49] = system: SR
[50] = system: SW-620
[51] = system: T47D
[52] = system: TK-10
[53] = system: UACC-257
[54] = system: UACC-62
[55] = system: UO-31

Question: How did the GI50 [1] turn out when `CN(C)/C=N/c1ccc2nonc2c1` was run?
Answer: > 100 µM (inactive)

Question: And the GI50 [2]?
Answer: > 100 µM (inactive)

Question: And the GI50 [3]?
Answer: > 100 µM (inactive)

Question: What about the GI50 [4] of the same compound?
Answer: > 100 µM (inactive)

Question: What about the GI50 [5] of the same compound?
Answer: > 100 µM (inactive)

Question: And the GI50 [6]?
Answer: > 100 µM (inactive)

Question: What about the GI50 [7] of the same compound?
Answer: > 100 µM (inactive)

Question: What about the GI50 [8] of the same compound?
Answer: > 100 µM (inactive)

Question: What about the GI50 [9] of the same compound?
Answer: > 100 µM (inactive)

Question: And the GI50 [10]?
Answer: > 100 µM (inactive)

Question: And the GI50 [11]?
Answer: > 100 µM (inactive)

Question: What about the GI50 [12] of the same compound?
Answer: > 100 µM

Question: What about the GI50 [13] of the same compound?
Answer: > 100 µM (inactive)

Question: And the GI50 [14]?
Answer: > 100 µM (inactive)

Question: What about the GI50 [15] of the same compound?
Answer: > 100 µM (inactive)

Question: And the GI50 [16]?
Answer: > 100 µM (inactive)

Question: What about the GI50 [17] of the same compound?
Answer: > 100 µM (inactive)

Question: What about the GI50 [18] of the same compound?
Answer: > 100 µM (inactive)

Question: What about the GI50 [19] of the same compound?
Answer: > 100 µM (inactive)

Question: What about the GI50 [20] of the same compound?
Answer: > 100 µM (inactive)

Question: And the GI50 [21]?
Answer: > 100 µM (inactive)

Question: And the GI50 [22]?
Answer: > 100 µM (inactive)

Question: What about the GI50 [23] of the same compound?
Answer: > 100 µM (inactive)

Question: What about the GI50 [24] of the same compound?
Answer: > 100 µM (inactive)

Question: And the GI50 [25]?
Answer: > 100 µM (inactive)

Question: And the GI50 [26]?
Answer: > 100 µM (inactive)

Question: What about the GI50 [27] of the same compound?
Answer: > 100 µM (inactive)

Question: And the GI50 [28]?
Answer: > 100 µM (inactive)

Question: And the GI50 [29]?
Answer: > 100 µM (inactive)

Question: What about the GI50 [30] of the same compound?
Answer: > 100 µM (inactive)

Question: And the GI50 [31]?
Answer: > 100 µM (inactive)

Question: What about the GI50 [32] of the same compound?
Answer: > 100 µM (inactive)

Question: And the GI50 [33]?
Answer: > 100 µM (inactive)

Question: What about the GI50 [34] of the same compound?
Answer: > 100 µM (inactive)

Question: What about the GI50 [35] of the same compound?
Answer: > 100 µM (inactive)

Question: And the GI50 [36]?
Answer: > 100 µM (inactive)

Question: What about the GI50 [37] of the same compound?
Answer: > 100 µM (inactive)

Question: What about the GI50 [38] of the same compound?
Answer: > 100 µM (inactive)

Question: And the GI50 [39]?
Answer: > 100 µM (inactive)

Question: What about the GI50 [40] of the same compound?
Answer: > 100 µM (inactive)

Question: And the GI50 [41]?
Answer: > 100 µM (inactive)

Question: What about the GI50 [42] of the same compound?
Answer: > 100 µM (inactive)

Question: What about the GI50 [43] of the same compound?
Answer: > 100 µM (inactive)

Question: And the GI50 [44]?
Answer: > 100 µM (inactive)

Question: And the GI50 [45]?
Answer: > 100 µM (inactive)

Question: What about the GI50 [46] of the same compound?
Answer: > 100 µM (inactive)

Question: And the GI50 [47]?
Answer: > 100 µM (inactive)

Question: And the GI50 [48]?
Answer: > 100 µM (inactive)

Question: And the GI50 [49]?
Answer: > 100 µM (inactive)

Question: What about the GI50 [50] of the same compound?
Answer: > 100 µM (inactive)

Question: And the GI50 [51]?
Answer: > 100 µM (inactive)

Question: And the GI50 [52]?
Answer: > 100 µM (inactive)

Question: What about the GI50 [53] of the same compound?
Answer: > 100 µM (inactive)

Question: What about the GI50 [54] of the same compound?
Answer: > 100 µM (inactive)

Question: What about the GI50 [55] of the same compound?
Answer: > 100 µM (inactive)
